Test results published in publication PMC8234462, “Novel Cyclophilin Inhibitor Decreases Cell Proliferation and Tumor Growth in Models of Hepatocellular Carcinoma” (Cancers, 2021).

Experiments:
[1] = Pharmacokinetics single oral administration, blood and liver; assay type: in vivo; conditions: CD1 mice, 10 mg/kg PO; for Tmax: male, mouse
Procedure: These experiments were performed by Shanghai ChemPartner Co., Ltd. (Shanghai, China) following the guidance described above. Twelve CD1 male mice with a weight between 28–30 g were purchased from SLAC Laboratory Animal Co. Ltd. (Shanghai, China). NV651 was diluted in 5% ethanol, 5% Cremophor EL and 90% saline. A single 10-mg/kg dose of NV651 was given orally (PO). […] At the selected time points, 30 µL of the blood samples were taken via face glass insert or cardiac puncture and placed into K2EDTA tubes. Tissues were terminal-collected at the designated time points. Thirty microliters of blood or liver samples were mixed with 100-µL Pierce Acetonitrile (ACN, Thermo Fisher Scientific, Waltham, MA, USA) containing 20-ng/mL IS (702) used as the internal standard. An aliquot of 10-µL supernatant was injected for LC-MS/MS analysis using LCMSMS-003 (API4000).

[2] = Pharmacokinetics IV and PO; assay type: in vivo; conditions: male, CD1, mouse, blood, mice; for Tmax: read-out: time of peak concentration in blood (converted)
Procedure: These experiments were performed by Shanghai ChemPartner Co., Ltd. (Shanghai, China) following the guidance described above.
Thirty microliters of blood or liver samples were mixed with 100-µL Pierce Acetonitrile (ACN, Thermo Fisher Scientific, Waltham, MA, USA) containing 20-ng/mL IS (702) used as the internal standard. An aliquot of 10-µL supernatant was injected for LC-MS/MS analysis using LCMSMS-003 (API4000).
NV651 was prepared as described above. Six- to eight-week-old male mice were treated IV with 0.5 mg/kg or PO with 5 mg/kg, with 3 mice per group. Blood and plasma samples were taken pre-dose; at 5 min of treatment and at 1, 2, 4, 8 or 24 h. Analysis was performed as indicated above.

HEPG2 = assay: Cell cycle analysis (PI DNA content); assay type: cell-based, human
Procedure: (§1) For the quantification of the DNA content, cells were treated with DMSO or 100 nM of NV651. Samples were collected at 24, 48, 72 and 96 h, followed by fixation with 70% (v/v) ethanol. DNA was stained with 50-µg/mL PI. Due to the capacity of PI to stain any type of nucleotide, RNase (100 µg/mL) (Sigma-Aldrich, Cat# R4875-100MG, St. Louis, MO, USA) was also added. To quantify the apoptotic cell fraction, we measured the subG1 fraction in the cell cycle.
(§2) Data was acquired with FACSverse Instrument and analyzed with FCS Express 6 Flow Research.

HUH7 = assay: Cell cycle analysis (PI DNA content); assay type: cell-based, human
Procedure: as §1, §2

[3] = Body weight during xenograft treatment; assay type: in vivo, NMRI nude mice; conditions: 10 mg/kg daily subcutaneous; 3 weeks
Procedure: HEPG2 cells were transduced with RediFect Red-FLuc-GFP (Perkin Elmer, Cat# CLS960003, Waltham, MA, USA) with a MOI = 3 and sorted for GFP^+ in a FACSAria III (BD Biosciences, Franklin Lakes, NJ, USA). GFP^+Luciferase (Luc)^+ HEPG2 cells were confirmed to be negative for mycoplasma with the MycoAlert^TM Mycoplasma Detection Kit (Lonza, Cat# LT07-418, Basel, Switzerland). Cell viability and a percentage of the GFP^+ cells were analyzed before the start of the in vivo experiment with a BD FACSverse cytometer (BD Biosciences, Franklin Lakes, NJ, USA). Twenty NMRI nude female mice (6–8 weeks old) were injected in one flank with 1 million cells suspended in PBS with 50% Matrigel (Corning, Cat# 354230, Corning, NY, USA) in a total volume of 200 µL. […]
Tumor growth was assessed with an in vivo imaging system (IVIS) one week after the injection of the cells. […] Body weights were measured at time 0 of the treatment and twice a week after the beginning of the treatment. […] Tumor growth was analyzed for up to 3 weeks. BLI signal intensity was quantified in total flux (photons/s) after deducting the average background signal from the measurement region of interest (ROI) around the tumor area using live image analysis software (PerkinElmer, Waltham, MA, USA).

[4] = system: human-derived normal cells; assay: Cytotoxicity panel of human-derived normal cells (overall); assay type: cell-based; conditions: overall statement
Procedure: The evaluation of the off-target effects of NV651 was performed by ImQuest BioSciences Inc. (Frederick, MD, USA) by analyzing the cytotoxicity in a panel of primary cells. NV651 was evaluated at a concentration of 30 µM and five serial half-logarithmic dilutions in triplicate. The positive control compounds for each cell type were purchased from Sigma-Aldrich (St. Louis, MO, USA) and were as follows: […]

RPTECs = assay: Cytotoxicity, CellTiter Glo; assay type: cell-based, human; conditions: Homo sapiens, RPTEC, 72 h, 3 days of treatment, read-out: IC50 (50% reduction in cell viability)
Procedure: The evaluation of the off-target effects of NV651 was performed by ImQuest BioSciences Inc. (Frederick, MD, USA) by analyzing the cytotoxicity in a panel of primary cells. NV651 was evaluated at a concentration of 30 µM and five serial half-logarithmic dilutions in triplicate. The positive control compounds for each cell type were purchased from Sigma-Aldrich (St. Louis, MO, USA) and were as follows: Unstimulated human peripheral blood mononuclear cells (PBMCs), phytohemagglutinin (PHA)-stimulated PBMCs, monocytes/macrophages, dendritic cells, hepatocytes, induced pluripotent stem cell (iPS) neurons: […] AZT, kidney cells (RPTEC): cisplatin and iPS cardiomyocytes: Doxazosin. Human primary renal proximal tubule cells (hRPTEC, Lonza, Basel, Switzerland) were cultured at 1 × 10^4 cells/well in supplemented REGM medium (Lonza, Basel, Switzerland). Following overnight incubation for adherence, cells were treated with NV651 in triplicate. After a 3-day treatment, CellTiter Glo (Promega, Madison, WI, USA) was used. CellTiter Glo was performed to evaluate cell viability. CellTiter Glo Luminescent Cell Viability Assay (Promega, Madison, WI, USA) was performed according to the manufacturer’s instructions.

For `CC(=O)CCC1C(=O)NC(C(C)C)C(=O)NC(Cc2cc(O)cc(F)c2)C(=O)N2CCCC(N2)C(=O)OC(C(C)=CC=CC(=O)OC(C)(C)C)CC=CC=CC(O)C(C)C1O` (stereo not drawn) [NV651], the “level in liver relative to blood” value ([1]; 24 h after treatment) was “three-fold higher level in the liver than blood”, the Tmax ([1]; blood, read-out: Tmax in blood) was 1 h and the Tmax ([1]; liver, read-out: Tmax in liver) was 1 h. It also gave a bioavailability ([2]; 0.5 mg/kg IV vs 5 mg/kg PO) of 2%, a Tmax ([2]; 0.5 mg/kg IV) of about 0.0833 h and a Tmax ([2]; 5 mg/kg PO) of about 1 h. The “cell size (FSC-A)” value (HEPG2; 100 nM NV651) was “increased trend in the cell size”, the “cell cycle distribution (DNA content)” value (HEPG2; 100 nM NV651, after 48–72 h) was “block in the G2/M phase” and the “subG1 fraction (apoptotic cells)” value (HEPG2; 100 nM NV651 up to 96 h) was “statistically significant increase in cell death”. The “cell size (FSC-A)” value (HUH7; 100 nM NV651) was “increased trend in the cell size”, the “cell cycle distribution (DNA content)” value (HUH7; 100 nM NV651, after 48–72 h) was “block in the G2/M phase” and the “subG1 fraction (apoptotic cells)” value (HUH7; 100 nM NV651 up to 96 h) was “statistically significant increase in cell death”. For the same compound, the body weight [3] was “no significant changes”, the IC50 [4] was over 20 µM and the IC50 (RPTECs) was 20.9 µM.
